Experimental data reported in publication PMC5570892, “Indole-based perenosins as highly potent HCl transporters and potential anti-cancer agents” (Scientific Reports, 2017).
Several values for one entry are separate records, joined by “and”; a condition that tells them apart may be missing. Equal values may be shown once. Entries after “also recorded” stand apart in the source; their conditions may differ.

Test: Cl^−/NO3^− antiport assay by chloride ISE
Assay type: biochemical
Conditions: for chloride efflux at pH 4.5: citrate buffer, within 5 minutes; for chloride transport at pH 6.5: phosphate buffer, compared to pH 7.2; for chloride transport at pH 7.2 (Hill analysis feasibility): Cl^−/NO3^− ISE assay, dose response; for EC50 Cl^−/NO3^− at pH 7.2 (by ISE): EC50 at 270 s, carrier:lipid molar percent, POPC vesicles
Description: The chloride transport properties of the new perenosins 2–8 were compared to 1d using the chloride/nitrate exchange assay monitored by a chloride ion selective electrode (ISE). Typically, unilamellar vesicles were prepared from POPC, containing an intravesicular NaCl solution (489 mM with 5 mM phosphate buffer at pH 7.2) suspended in a NaNO3 solution (489 mM with 5 mM phosphate buffer at pH 7.2). All perenosins were added as a DMSO solution and the rate of chloride efflux was monitored by the chloride ISE. At the end of the experiment (300 s), detergent was added to lyse the vesicles and obtain the 100% chloride efflux reading. Dose response studies of 1d and 2–8 were performed to allow Hill analysis, giving the EC50 values and Hill coefficients as shown in Table 2.
The external pH of cancer cells (pH 6.7[53]) is slightly acidic compared to healthy cells (pH 7.2–7.5[54]). […] To investigate the effect of pH on the chloride transport capabilities unilamellar vesicles were loaded with NaCl (489 mM) and suspended in NaNO3 (489 mM), and the internal and external solutions were buffered to pH 4.5, 6.5, 7.2 and 10 using various buffers (more detail can be found in the Supplementary Information). Compounds 1d and 2–8 were then tested in a single point screen at 0.1 mol% loading (Fig. 5). At pH 4.5 the perenosins exist predominantly as the active protonated species and so all compounds show moderate to high chloride transport properties, whereas, there is no chloride transport observed at pH 10 (see Supplementary Information for results).
S10. Anion Transport Studies
S10.1. General Procedure for the ISE Assay
Unilamellar vesicles were prepared using previously reported literature procedures7-9. A lipid film of POPC (1-palmitoyl-2-oleoyl-sn-glycero-3-phosphocholine) or POPC:cholesterol (7:3 molar ratio) was prepared from a chloroform solution under reduced pressure and then dried under vacuum for 4 or more hours. The lipid film was rehydrated by vortexing with an internal solution of buffered metal chloride salt (usually 489 mM MCl). The lipid suspension was then subjected to 9 freeze-thaw cycles and left to rest at room temperature for 30 minutes. After this, the suspension was extruded 25 times through a 200 nm polycarbonate membrane resulting in unilamellar vesicles of a mean diameter of 200 nm. The large unilamellar vesicles were dialysed in the corresponding external solution for a minimum of 2 hours to remove any unencapsulated metal salts. The lipid solution obtained after dialysis was diluted to a standard volume (usually 10 mL) with the external buffered solution to obtain a lipid stock of known concentration.
Internal and external solutions vary for each experiment and are detailed for each. Experiments conducted at different pHs required different buffers (citrate buffer for pH 4.5; phosphate buffer for pH 6.5 and pH 7.2; and ethanolamine buffer for pH 10) however, a constant buffer concentration (5 mM) and total ionic strength (500 mM) was maintained.
The lipid stock was diluted with the external buffer solution to a standard volume (5 mL), to afford a solution with a lipid concentration of 1 mM. The compounds were added as a DMSO solution (10 μL) at the start of the experiment and the resulting chloride efflux was monitored using a chloride selective electrode over 5 minutes. After this time, detergent (50 μL of Triton X-100 (11 w%) in H2O:DMSO (7:1 v/v)) was added to lyse the vesicles and after 7 minutes a final chloride efflux reading was taken. This value represented 100 % chloride efflux and was used to calibrate the other […]
Compared to pH 7.2, at pH 6.5 compounds 1d and 2-6 show increased transport ability with 2, 4 and 5 showing very similar, high transport capabilities and 1d, 3 and 6 not transporting to as great an […]
S10.3. Cl-/NO3- ISE Assay - Hill Analysis
The Cl-/NO3- exchange assay was performed as described above testing the compounds at varying […]
carrier concentration (mol%, with respect to lipid). The data points were then fitted to the Hill […]

| Structure (SMILES) | chloride efflux at pH 4.5 (0.1 mol% loading) | chloride transport at pH 6.5 (0.1 mol% loading) | chloride transport at pH 7.2 (Hill analysis feasibility) | EC50 Cl^−/NO3^− at pH 7.2 (by ISE) | maximum chloride efflux (after 300 s, loading of 10 mol%, pH 7.2) | chloride efflux in POPC vesicles at pH 7.2 (0.1 mol% loading) |
| --- | --- | --- | --- | --- | --- | --- |
| CCCCCc1cc2cc(C)cc(/N=C/c3[nH]c4ccccc4c3C)c2[nH]1 [Perenosin 8] | 35% | inactive | too weak to perform Hill analysis; also recorded: weak transport activity | – | – | – |
| CCCCCc1c(C)[nH]c(/C=N/c2cc(C)cc3cc[nH]c23)c1C [Perenosin 5] | – | high | – | 0.0227 mol% | – | – |
| CCCc1cc2cc(C)cc(/N=C/c3[nH]c(C)cc3C)c2[nH]1 [Perenosin 4] | – | high | – | 0.0111 mol% | – | – |
| CCCCCc1cc2cc(C)cc(/N=C/c3[nH]c(C)c(CCCCC)c3C)c2[nH]1 [Perenosin 6] | – | – | – | 0.0852 mol% | – | – |
| CCCCCc1cc(/N=C/c2[nH]c(C)cc2C)c2[nH]ccc2c1 [Perenosin 1d] | – | – | – | 0.122 mol% and 0.1220 mol% | – | – |
| CCCCCc1cc2cc(C(F)(F)F)cc(/N=C/c3[nH]c(C)cc3C)c2[nH]1 [Perenosin 3] | – | – | too weak to perform Hill analysis | – | 35% | – |
| CCCCCc1cc(/N=C/c2[nH]c3ccccc3c2C)c2[nH]ccc2c1 [Perenosin 7] | inactive | inactive | too weak to perform Hill analysis; also recorded: weak transport activity | – | – | – |
| CCCCCc1cc2cc(C)cc(/N=C/c3[nH]c(C)cc3C)c2[nH]1 [Perenosin 2] | – | high | – | 0.0043 mol% | – | 100% |
